The nature of data set [1]: Resistance index, ratio of IC50 for antimalarial activity against CQ/PYR/ATO resistant Plasmodium falciparum TM90C6B to IC50 for antimalarial activity against Plasmodium falciparum 3D7. The class given is functional.
Data set [2] in a line: Cytotoxicity against human HepG2 cells assessed as inhibition of cell growth incubated for 72 hrs by MTT assay. The class given is toxicity, cell-based. For orientation: Tetrazolium dyes change colour on reduction, which living cells bring about.
Data set [3] can be described thus: Resistance index, ratio of IC50 for antimalarial activity against CQ/SDX/PYR/MQ/CYC resistant Plasmodium falciparum Dd2 to IC50 for antimalarial activity against Plasmodium falciparum 3D7. The data set is classed as functional.
The subject of data set [4] is Plasmodium falciparum. As to the kind of experiment: Antimalarial activity against CQ/SDX/PYR/MQ/CYC resistant Plasmodium falciparum Dd2 assessed as reduction in parasitemia measured after 72 hrs by SYBR Green I dye based fluorescence assay. The class given is functional, organism-based. Conditions: Dd2, 72 h.
The nature of data set [5]: Resistance index, ratio of IC50 for antimalarial activity against MMV848 resistant Plasmodium falciparum 3D7r_MMV848 to IC50 for antimalarial activity against Plasmodium falciparum 3D7. The class given is functional.
Data set [6] has as its system Plasmodium falciparum. As to the kind of experiment: Antimalarial activity against MMV848 resistant Plasmodium falciparum 3D7r_MMV848 assessed as reduction in parasitemia measured after 72 hrs by SYBR Green I dye based fluorescence assay. The class given is functional, organism-based. The settings on record: 3D7r_MMV848, 72 h.
Data set [7] relates to Plasmodium falciparum. The data set is described as follows: Antimalarial activity against Plasmodium falciparum 3D7 assessed as reduction in parasitemia measured after 72 hrs by SYBR Green I dye based fluorescence assay. The data set is classed as functional, organism-based. The settings on record: 3D7, 72 h.
Data set [8] deals with Plasmodium falciparum. As to the kind of experiment: Antimalarial activity against CQ/PYR/ATO resistant Plasmodium falciparum TM90C6B assessed as reduction in parasitemia measured after 72 hrs by SYBR Green I dye based fluorescence assay. The data set is classed as functional, organism-based.

The term IC50 denotes the midpoint of a concentration-inhibition curve.

A value given as a limit tells only on which side of the number the result lay.

`O=c1occ(-c2ccc(O)cc2)c2cc(O)ccc12`: the Ratio IC50 in data set [1] worked out at 1; in data set [3], 1.9; in data set [5] it was 1.2. In data set [2], the IC50 at 72 h was greater than 100 µM. Besides, the IC50 in the data set with Plasmodium falciparum [4] amounted to 37 µM; in the data set with Plasmodium falciparum [6] it was 23 µM; with Plasmodium falciparum [7] it was 19 µM; in the data set on Plasmodium falciparum [8], 19 µM.

In the case of `C[C@@H]1CC[C@H]2[C@@H](C)C(=O)O[C@@H]3O[C@@]4(C)CC[C@@H]1[C@]32OO4` [ARTEMISININ], the figures for the Ratio IC50 in data set [1], in data set [3] and in data set [5] were 1, 2 and 2, respectively. In addition, the IC50 was determined as 0.011 µM in the data set with Plasmodium falciparum [4], 0.013 µM in the data set with Plasmodium falciparum [6] and 0.006 µM in the data set on Plasmodium falciparum [7].

Consider `CC(C)c1c(C(=O)Nc2ccccc2)c(-c2ccccc2)c(-c2ccc(F)cc2)n1CC[C@@H](O)C[C@@H](O)CC(=O)O` [ATORVASTATIN], for which the Ratio IC50 in data set [1] was greater than 1430. Further, the IC50 with Plasmodium falciparum [8] is greater than 1 µM.

On to `CCc1nc(N)nc(N)c1-c1ccc(Cl)cc1` [PYRIMETHAMINE], for which the Ratio IC50 in data set [3] was greater than 166. The IC50 in the data set with Plasmodium falciparum [4] was greater than 10 µM; with Plasmodium falciparum [7], 0.06 µM.

The values are drawn from ChEMBL document CHEMBL5321250, “Polyketide- and Terpenoid-Derived Metabolites Produced by a Marine-Derived Fungus, Peroneutypa sp” (J Nat Prod, 2023).
